According to article doi:10.1101/2025.02.17.638454, “Synergistic RAS-MAPK and AKT Activation in MYC-Driven Tumors via Adjacent PVT1 Rearrangements” (bioRxiv, 2025):
No end group written: not given here.

Experiments:
Format in all cases: cell-based, human
D458 cells = experiment: Proliferation assay D458
COLO-320DM cells = experiment: Proliferation assay COLO-320DM; settings: COLO320DM
MYC [1] = experiment: Western blot of MYC in D458
Experimental: For whole-cell lysate, the cell pellet was resuspended in RIPA buffer (Cell Signaling Technologies, Danvers, MA) supplemented with a protease inhibitor cocktail (Cell Signaling Technologies) and incubated on ice for 20 minutes. The lysate was then centrifuged at 14,000 revolutions/minute for 10 minutes at 4°C, and the supernatant was harvested. Protein concentration was quantified by BCA Protein Assay Kit (Thermo Fisher Scientific) as per kit protocol. Next, 20 μg of whole-cell lysate was electrophoresed on a 4%–20% gradient polyacrylamide gel with SDS (Bio-Rad, Hercules, CA) and electroblotted onto polyvinylidene difluoride membranes (Bio-Rad). Membranes were blocked in Tris-buffered saline with 5% nonfat milk and 0.1% Tween and probed with antibodies. Bound proteins were detected with horseradish-peroxidase–conjugated secondary antibodies (Cell Signaling Technologies) and SuperSignal West Femto (Thermo Fisher Scientific). Antibodies used were anti-c-MYC (Cell Signaling Technology, 5605, anti-Phospho-c-MYC (Ser62) (Cell Signaling Technology, 13748), anti-β ACTIN (Cell Signaling Technology, 8457), anti-Phospho-p44/42 (Erk1/2) (Thr202/Tyr204) (Cell Signaling Technology, 4370), anti-p44/42 (Erk1/2) (Cell Signaling Technology, 4695), anti-Phospho-MEK1/2 (Ser217/221) (Cell Signaling Technology, 9154), anti-MEK1/2 (Cell Signaling Technology, 9122), anti-Phospho-p90RSK (Ser380) (Cell Signaling Technology, 11989), anti-RSK1/RSK2/RSK3 (Cell Signaling Technology, 9355), Anti-Rabbit IgG, HRP-linked Antibody (Cell Signaling Technology, 7074). Anti-FFX (Firefox) monoclonal antibodies were custom produced by Proteintech using FFX residues 13–104 as epitope.
The HNB ORF and eGFP (control) were cloned in an inducible lentivirus expression, TRE-gateway plasmid (pLIX_403, Addgene, #41395). Lentivirus was produced in HEK293T cells using the protocol described above. D458, NCI-H1792 and COLO 320DM cells were transfected with inducible HNB lentivirus and selected with 1 μg/mL concentration of Puromycin. Selected cells were seeded at a concentration of 4 × 10^5 cells per well. After 24 hours of seeding, the cells were treated with 1 μg/mL Doxycycline for 48 hours. The cells were then lysed using RIPA buffer and 1X protease inhibitor cocktail. The protein lysates were collected and quantified using the previously described protocol. 20 μg of whole-cell lysate was electrophoresed on a 4%–20% gradient polyacrylamide gel with SDS (Bio-Rad, Hercules, CA) and electroblotted onto polyvinylidene difluoride membranes (Bio-Rad). […] Bound proteins were detected with horseradish-peroxidase–conjugated secondary antibodies (Cell Signaling Technologies) and SuperSignal West Femto (Thermo Fisher Scientific). […]

MYC [2] = experiment: Western blot of MYC in COLO-320DM; settings: COLO320DM
Experimental: For whole-cell lysate, the cell pellet was resuspended in RIPA buffer (Cell Signaling Technologies, Danvers, MA) supplemented with a protease inhibitor cocktail (Cell Signaling Technologies) and incubated on ice for 20 minutes. The lysate was then centrifuged at 14,000 revolutions/minute for 10 minutes at 4°C, and the supernatant was harvested. Protein concentration was quantified by BCA Protein Assay Kit (Thermo Fisher Scientific) as per kit protocol. Next, 20 μg of whole-cell lysate was electrophoresed on a 4%–20% gradient polyacrylamide gel with SDS (Bio-Rad, Hercules, CA) and electroblotted onto polyvinylidene difluoride membranes (Bio-Rad). Membranes were blocked in Tris-buffered saline with 5% nonfat milk and 0.1% Tween and probed with antibodies. Bound proteins were detected with horseradish-peroxidase–conjugated secondary antibodies (Cell Signaling Technologies) and SuperSignal West Femto (Thermo Fisher Scientific). […]
The HNB ORF and eGFP (control) were cloned in an inducible lentivirus expression, TRE-gateway plasmid (pLIX_403, Addgene, #41395). […] The protein lysates were collected and quantified using the previously described protocol. […] Bound proteins were detected with horseradish-peroxidase–conjugated secondary antibodies (Cell Signaling Technologies) and SuperSignal West Femto (Thermo Fisher Scientific). […]

MYC targets genes = experiment: GSEA MYC targets, D458; settings: D458, si.CircPVT1 vs si.Ctrl, n=3
Excerpt: RNAseq processing: Raw reads were mapped to the hg19 human reference genome using the STAR aligner (v.2.5.0a) 66. PCR-duplicated reads and low mapping quality reads (MQ score below 20) were removed using Picard tools and SAMtools, respectively. Aligned reads were counted using htseq-count (v.0.6.1p1) 69 and normalized according to size factors method from DESeq2 70. We used fold change ≥2 and FDR <0.05 as the determination of differentially expressed genes (DEG). Statistical analysis and plots were performed inside R environment version 3.1.0. upload files)

| Substance | cellular proliferation (D458 cells; D458, induction of HNB or HNB mutant (+/- Dox)) | cellular proliferation (COLO-320DM cells; induction of HNB (-/+ Dox), P=0.0002) | MYC protein level (MYC [1]; D458, induction of HNB (-/+ Dox)) | MYC protein level (MYC [2]; induction of HNB (-/+ Dox)) | cellular proliferation (D458 cells; D458, transfection with si.CircPVT1 vs si.Ctrl, n=3, two-way ANOVA) | cellular proliferation (COLO-320DM cells; si.CircPVT1 vs si.Ctrl, n=3, two-way ANOVA, P<0.0001) | MYC protein (MYC [1]; D458, si.CircPVT1 vs si.Ctrl, n=3, unpaired t test) | MYC protein (MYC [2]; si.CircPVT1 vs si.Ctrl, n=3, unpaired t test, <0.0001) | MYC targets (GSEA) (MYC targets genes) |
| --- | --- | --- | --- | --- | --- | --- | --- | --- | --- |
| MKTQLGAVKGFLHV [HNB] | significantly reduced cellular proliferation | significantly reduced cellular proliferation | significantly reduced MYC expression at the mRNA as well as the protein levels | significantly reduced MYC expression at the mRNA as well as the protein levels | – | – | – | – | – |
| si.CircPVT1: siRNA targeting the junction sequence of CircPVT1, 5’-UGGGCUUGAGGCCUGAUCUUU-3’ (other strand not given here) | – | – | – | – | reduced cellular proliferation | reduced cellular proliferation | significant reduction of MYC protein | significant reduction of MYC protein | depletion of MYC targets |
